The values below are quoted from earlier work in US8957276B2 (priority 2009, dated 2015).

SMILES strings stand for the structures.

One data set concerns Human. The conditions noted are these: in vivo, po.
For the molecule `[Hg]` [Hg, metallic mercury], the “Acute toxicity (LD50)” value is listed as 43 mg/kg.

A further data set concerns Rat. As to conditions: in vivo, po.
In the case of `[CH3][Hg][CH3]` [(CH3)2Hg], the “Acute toxicity (LD50)” value is 26 mg/kg.

For the molecule `[Cl][Hg].[Cl][Hg]` [Hg2Cl2], the “Acute toxicity (LD50)” value is 210 mg/kg.

Regarding `[Cl][Hg][Cl]` [HgCl2, mercury chloride (II)], the “Acute toxicity (LD50)” value is 1 mg/kg.

Regarding `[Cl][Hg]` [HgCl], the “Acute toxicity (LD50)” value is recorded as 210 mg/kg.

On to `[O]=[Hg]` [HgO, mercury oxide], for which the “Acute toxicity (LD50)” value is reported as 18 mg/kg.
